Experimental data published in patent publication US12180207B2 (ARRAY BIOPHARMA INC., priority 2018, dated 2024).

Key:
[1] = molecular target: T1, HEK-293 cells transfected with dox-inducible human wild type FGFR3 (Homo sapiens (Human), UniProt P22607); assay: FGFR3 pFGFR cell assay (ELISA); assay type: cell-based; details: HEK-293 dox-inducible FGFR3, 1 hour compound, 100 ng/ml FGF-acidic
Procedure, shortened: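 Doxycycline-induced (1 μg/ml) HEK-293 cells expressing wild-type human FGFR3, treated 1 h with compound (1:3 series, top final 5 μM), then stimulated 5 min with 100 ng/ml FGF-acidic. Phospho-FGFR3 measured by ELISA (total FGFR3 capture, phosphotyrosine detection, OD 450 nm); IC50 from 4-parameter fit of POC values.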

[2] = molecular target: phosphorylated FGFR3 (SEQ ID NO: 5, amino acids 449 to 759) (Homo sapiens (Human), UniProt P22607); assay: FGFR enzyme binding assay (HTRF tracer displacement), FGFR3; details: 5 nM phosphorylated FGFR3, average of multiple determinations if made
phosphorylated FGFR3 (SEQ ID NO: 5, amino acids 449 to 759), sequence (P22607 449-759): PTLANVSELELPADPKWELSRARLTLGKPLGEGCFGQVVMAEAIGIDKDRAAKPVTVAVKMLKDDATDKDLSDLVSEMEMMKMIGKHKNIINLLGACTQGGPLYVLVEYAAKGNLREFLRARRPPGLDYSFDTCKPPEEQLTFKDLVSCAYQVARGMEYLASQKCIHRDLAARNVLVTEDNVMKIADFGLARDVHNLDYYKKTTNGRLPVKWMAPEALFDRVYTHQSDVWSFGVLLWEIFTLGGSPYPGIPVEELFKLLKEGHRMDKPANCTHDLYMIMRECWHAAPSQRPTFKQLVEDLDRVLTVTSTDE
Procedure, shortened: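 Kinase and tracer were incubated with compound for 60 minutes at 22° C. Tracer displacement was then measured by HTRF, and results were expressed as POC with 1 μM control inhibitor defining full displacement.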

[3] = molecular target: FGFR3 (SEQ ID NO: 5, amino acids 449-759) (Homo sapiens (Human), UniProt P22607); assay: LC/MS FGFR3 kobs assay (covalent protein modification); assay type: binding; details: 500 nM FGFR3, 3 μM compound
FGFR3 (SEQ ID NO: 5, amino acids 449-759), sequence (P22607 449-759): as above
Procedure, shortened: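 kobs is the rate constant from an exponential-decay fit of percent unmodified kinase, normalized to DMSO controls, averaged over multiple determinations where available. Time-course samples of FGFR1 (458-765) and FGFR3 (449-759) with compound were acid-quenched (0.4% formic acid) and protein adducts quantified by intact-mass LC/MS.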

[4] = molecular target: T1, HEK-293 cells transfected with dox-inducible human wild type FGFR3; assay: FGFR3 pERK cell assay; assay type: cell-based; details: HEK-293 dox-inducible FGFR3, 1 hour compound, 100 ng/ml FGF-acidic; maximum concentration 5 μM
Procedure, shortened: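 Doxycycline-induced cells preincubated 1 h at 37 °C with compound (1:3 dilutions, top 5 μM final), then stimulated 5 min with 100 ng/ml FGF-acidic. Lysate phospho-ERK1/2 measured by MSD sandwich assay; IC50 at 50 POC from 4-parameter fit, normalised to no-compound and control-compound wells.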

[5] = molecular target: HEK-293 cells transfected with dox-inducible human wild type FGFR1 (Homo sapiens (Human), UniProt P11362); assay: FGFR1 pERK cell assay; assay type: cell-based; details: HEK-293 dox-inducible FGFR1, 1 hour compound, 100 ng/ml FGF-acidic; maximum concentration 5 μM
HEK-293 cells transfected with dox-inducible human wild type FGFR1, sequence (P11362 22-822): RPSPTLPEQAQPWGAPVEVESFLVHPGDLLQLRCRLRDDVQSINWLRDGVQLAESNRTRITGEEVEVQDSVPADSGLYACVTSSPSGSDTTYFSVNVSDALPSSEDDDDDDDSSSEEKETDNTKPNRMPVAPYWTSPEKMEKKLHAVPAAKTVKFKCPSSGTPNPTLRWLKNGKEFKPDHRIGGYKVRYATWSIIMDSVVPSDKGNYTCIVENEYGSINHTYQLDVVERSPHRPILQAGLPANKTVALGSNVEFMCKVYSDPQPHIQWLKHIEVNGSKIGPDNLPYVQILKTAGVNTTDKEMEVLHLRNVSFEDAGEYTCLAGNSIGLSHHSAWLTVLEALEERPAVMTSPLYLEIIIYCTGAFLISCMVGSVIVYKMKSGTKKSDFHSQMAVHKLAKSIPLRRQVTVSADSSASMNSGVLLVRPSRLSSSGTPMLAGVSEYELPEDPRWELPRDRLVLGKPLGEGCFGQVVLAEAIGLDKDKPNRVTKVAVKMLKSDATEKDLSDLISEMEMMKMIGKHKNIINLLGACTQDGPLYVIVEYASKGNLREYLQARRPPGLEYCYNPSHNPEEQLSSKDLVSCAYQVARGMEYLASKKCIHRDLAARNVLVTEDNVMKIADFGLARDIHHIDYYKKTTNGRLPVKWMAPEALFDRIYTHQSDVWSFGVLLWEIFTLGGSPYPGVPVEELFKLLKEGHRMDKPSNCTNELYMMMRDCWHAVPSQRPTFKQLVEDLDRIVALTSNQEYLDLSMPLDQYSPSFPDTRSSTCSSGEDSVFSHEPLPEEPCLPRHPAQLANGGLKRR
Procedure, shortened: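 In HEK-293 cells with dox-induced human wild-type FGFR1, compounds (1:3 dilutions, top 5 μM final) were applied 1 h at 37°C before 5 min stimulation with 100 ng/ml FGF-acidic. Phospho-ERK1/2 measured by MSD sandwich immunoassay; IC50 from 4-parameter fit of POC versus vehicle and control compound.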

T1 sequence (P22607 23-806): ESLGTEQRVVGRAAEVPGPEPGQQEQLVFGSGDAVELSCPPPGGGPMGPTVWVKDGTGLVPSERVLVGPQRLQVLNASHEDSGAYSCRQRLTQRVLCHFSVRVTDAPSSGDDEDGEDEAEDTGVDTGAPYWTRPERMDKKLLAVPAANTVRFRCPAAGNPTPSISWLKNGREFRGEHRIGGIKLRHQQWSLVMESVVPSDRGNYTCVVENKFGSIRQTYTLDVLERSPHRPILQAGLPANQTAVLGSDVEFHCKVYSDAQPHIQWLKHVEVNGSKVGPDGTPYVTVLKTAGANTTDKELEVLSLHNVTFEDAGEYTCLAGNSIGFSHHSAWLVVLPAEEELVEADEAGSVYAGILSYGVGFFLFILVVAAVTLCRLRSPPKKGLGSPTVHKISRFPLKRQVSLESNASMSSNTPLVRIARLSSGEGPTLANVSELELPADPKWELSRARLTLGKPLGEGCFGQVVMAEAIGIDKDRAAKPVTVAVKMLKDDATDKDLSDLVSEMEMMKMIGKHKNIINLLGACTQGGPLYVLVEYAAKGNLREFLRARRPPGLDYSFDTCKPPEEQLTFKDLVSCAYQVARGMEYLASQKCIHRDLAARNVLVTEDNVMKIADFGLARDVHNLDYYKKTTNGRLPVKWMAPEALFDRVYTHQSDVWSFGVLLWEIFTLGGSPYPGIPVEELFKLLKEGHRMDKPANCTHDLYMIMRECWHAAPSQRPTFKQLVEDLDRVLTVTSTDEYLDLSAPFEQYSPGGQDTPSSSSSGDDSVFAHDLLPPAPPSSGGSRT

IC50 [1] [µM] | IC50 [2] [µM] | FGFR3 Enz kobs [3] [min⁻¹] | IC50 [4] [µM] | IC50 [5] [µM] | SMILES
0.04 | 0.005 | 0.00661 |  |  | C=CC(=O)N1CC2(CCC(C(=O)N3CCC(n4cc(-c5cc(OC)c6c(C#N)cnn6c5)cn4)CC3)CC2)C1 [Example 21, 6-(1-(1-(2-acryloyl-2-azaspiro[3.5]nonane-7-carbonyl)piperidin-4-yl)-1H-pyrazol-4-yl)-4-methoxypyrazolo[1,5-a]pyridine-3-carbonitrile]
0.087 | 0.008 | 0.0108 |  |  | C=CC(=O)Nc1cccc(C(=O)N2CCC(n3cc(-c4cc(OC)c5c(C#N)cnn5c4)cn3)CC2)c1 [Example 22, N-(3-(4-(4-(3-cyano-4-methoxypyrazolo[1,5-a]pyridin-6-yl)-1H-pyrazol-1-yl)piperidine-1-carbonyl)phenyl)acrylamide]
0.435 | 0.069 | 0.00708 |  |  | C=CC(=O)Nc1cccc(C(=O)N2CCC[C@@H](n3cc(-c4cc(OC)c5c(C#N)cnn5c4)cn3)C2)c1 [Example 24, (R)-N-(3-(3-(4-(3-cyano-4-methoxypyrazolo[1,5-a]pyridin-6-yl)-1H-pyrazol-1-yl)piperidine-1-carbonyl)phenyl)acrylamide]
0.023 | 0.005 | 0.01214 |  |  | C=CC(=O)N1CCC(F)(C(=O)N2CCC(n3cc(-c4cc(OC)c5c(C#N)cnn5c4)cn3)CC2)C1 (stereo not shown) [Example 30, 6-(1-(1-(1-acryloyl-3-fluoropyrrolidine-3-carbonyl)piperidin-4-yl)-1H-pyrazol-4-yl)-4-methoxypyrazolo[1,5-a]pyridine-3-carbonitrile]
0.182 | 0.018 | 0.01264 |  |  | C=CC(=O)Nc1cccc(C(=O)N2CC[C@@H](n3cc(-c4cc(OC)c5c(C#N)cnn5c4)cn3)C2)c1 [Example 56, (R)-N-(3-(3-(4-(3-cyano-4-methoxypyrazolo[1,5-a]pyridin-6-yl)-1H-pyrazol-1-yl)pyrrolidine-1-carbonyl)phenyl)acrylamide]
0.187 | 0.013 | 0.0095 |  |  | C=CC(=O)Nc1ccc(C(=O)N2CC[C@H](n3cc(-c4cc(OC)c5c(C#N)cnn5c4)cn3)C2)c(C)c1 [Example 68, (S)-N-(4-(3-(4-(3-cyano-4-methoxypyrazolo[1,5-a]pyridin-6-yl)-1H-pyrazol-1-yl)pyrrolidine-1-carbonyl)-3-methylphenyl)acrylamide]
0.104 | 0.03 | 0.0114 |  |  | C=CC(=O)Nc1ccc(C(=O)N2CC[C@H](n3cc(-c4cc(OC)c5c(C#N)cnn5c4)cn3)C2)cc1C [Example 70, (S)-N-(4-(3-(4-(3-cyano-4-methoxypyrazolo[1,5-a]pyridin-6-yl)-1H-pyrazol-1-yl)pyrrolidine-1-carbonyl)-2-methylphenyl)acrylamide]
 | 0.049 | 0.00836 | 0.205 | 2.53 | C=CC(=O)N1CC(CN2CC(n3ncc(-c4cc(OC)c5c(C#N)cnn5c4)c3C)C2)C1 [Example 92]
0.057 |  | 0.01958 |  |  | C=CC(=O)Nc1ccc(C(=O)N2CCC(n3cc(-c4cc(OC)c5c(C#N)cnn5c4)cn3)CC2)cc1 [Example 177, N-(4-(4-(4-(3-cyano-4-methoxypyrazolo[1,5-a]pyridin-6-yl)-1H-pyrazol-1-yl)piperidine-1-carbonyl)phenyl)acrylamide]

More lines, now with the values behind:

SMILES | IC50 [1] [µM] | IC50 [2] [µM] | FGFR3 Enz kobs [3] [min⁻¹] | IC50 [4] [µM] | IC50 [5] [µM]
C=CC(=O)N1CCC(C#N)(C(=O)N2CCC(n3cc(-c4cc(OC)c5c(C#N)cnn5c4)cn3)CC2)CC1 [Example 14, 6-(1-(1-(1-acryloyl-4-cyanopiperidine-4-carbonyl)piperidin-4-yl)-1H-pyrazol-4-yl)-4-methoxypyrazolo[1,5-a]pyridine-3-carbonitrile] | 0.025 | 0.007 | 0.00997 |  | 
C=CC(=O)N1CCC(C(=O)N2CCC(n3cc(-c4cc(OC)c5c(C#N)cnn5c4)cn3)CC2)C(F)(F)C1 (stereo not shown) [Example 15, 6-(1-(1-(1-acryloyl-3,3-difluoropiperidine-4-carbonyl)piperidin-4-yl)-1H-pyrazol-4-yl)-4-methoxypyrazolo[1,5-a]pyridine-3-carbonitrile] | 0.01 | 0.002 | 0.01716 |  | 
C=CC(=O)Nc1ccc(C(=O)N2CCC[C@@H](n3cc(-c4cc(OC)c5c(C#N)cnn5c4)cn3)C2)cc1 [Example 23, (R)-N-(4-(3-(4-(3-cyano-4-methoxypyrazolo[1,5-a]pyridin-6-yl)-1H-pyrazol-1-yl)piperidine-1-carbonyl)phenyl)acrylamide] | 0.09 | 0.054 | 0.01176 |  | 
C=CC(=O)Nc1ccccc1C(=O)N1CCC[C@@H](n2cc(-c3cc(OC)c4c(C#N)cnn4c3)cn2)C1 [Example 25, (R)-N-(2-(3-(4-(3-cyano-4-methoxypyrazolo[1,5-a]pyridin-6-yl)-1H-pyrazol-1-yl)piperidine-1-carbonyl)phenyl)acrylamide] | 0.083 | 0.052 | 0.00672 |  | 
C=CC(=O)N1CC[C@H](C(=O)N2CCC(n3cc(-c4cc(OC)c5c(C#N)cnn5c4)cn3)CC2)C1 [Example 28, (S)-6-(1-(1-(1-acryloylpyrrolidine-3-carbonyl)piperidin-4-yl)-1H-pyrazol-4-yl)-4-methoxypyrazolo[1,5-a]pyridine-3-carbonitrile] | 0.285 | 0.017 | 0.00294 |  | 
C=CC(=O)N1CC[C@@H](C(=O)N2CCC(n3cc(-c4cc(OC)c5c(C#N)cnn5c4)cn3)CC2)C1 [Example 29, (R)-6-(1-(1-(1-acryloylpyrrolidine-3-carbonyl)piperidin-4-yl)-1H-pyrazol-4-yl)-4-methoxypyrazolo[1,5-a]pyridine-3-carbonitrile] | 0.359 | 0.043 | 0.00297 |  | 
C=CC(=O)N1CC(C)(C(=O)N2CCC(n3cc(-c4cc(OC)c5c(C#N)cnn5c4)cn3)CC2)C1 [Example 38, 6-(1-(1-(1-acryloyl-3-methylazetidine-3-carbonyl)piperidin-4-yl)-1H-pyrazol-4-yl)-4-methoxypyrazolo[1,5-a]pyridine-3-carbonitrile] | 0.009 | 0.002 | 0.01168 |  | 
C=CC(=O)N1CC(CC)(C(=O)N2CCC(n3cc(-c4cc(OC)c5c(C#N)cnn5c4)cn3)CC2)C1 [Example 40, 6-(1-(1-(1-acryloyl-3-ethylazetidine-3-carbonyl)piperidin-4-yl)-1H-pyrazol-4-yl)-4-methoxypyrazolo[1,5-a]pyridine-3-carbonitrile] | 0.016 | 0.005 | 0.01133 |  | 
C=CC(=O)N1CC(C(=O)N2CC[C@@H](n3cc(-c4cc(OC)c5c(C#N)cnn5c4)cn3)C2)C1 [Example 59, (R)-6-(1-(1-(1-acryloylazetidine-3-carbonyl)pyrrolidin-3-yl)-1H-pyrazol-4-yl)-4-methoxypyrazolo[1,5-a]pyridine-3-carbonitrile] | 0.667 | 0.016 | 0.00665 |  | 
C=CC(=O)Nc1ccc(C(=O)N2CC[C@H](n3cc(-c4cc(OC)c5c(C#N)cnn5c4)cn3)C2)cc1 [Example 66, (S)-N-(4-(3-(4-(3-cyano-4-methoxypyrazolo[1,5-a]pyridin-6-yl)-1H-pyrazol-1-yl)pyrrolidine-1-carbonyl)phenyl)acrylamide] | 0.082 | 0.01 | 0.0223 |  | 
C=CC(=O)Nc1ccc(C(=O)N2CC[C@H](n3cc(-c4cc(OC)c5c(C#N)cnn5c4)cn3)C2)c(OC)c1 [Example 69, (S)-N-(4-(3-(4-(3-cyano-4-methoxypyrazolo[1,5-a]pyridin-6-yl)-1H-pyrazol-1-yl)pyrrolidine-1-carbonyl)-3-methoxyphenyl)acrylamide] | 0.311 | 0.011 | 0.01649 |  | 
C=CC(=O)N1CC(C)(CN2CC(n3ncc(-c4cc(OC)c5c(C#N)cnn5c4)c3C)C2)C1 [Example 93, 6-(1-(1-((1-acryloyl-3-methylazetidin-3-yl)methyl)azetidin-3-yl)-5-methyl-1H-pyrazol-4-yl)-4-methoxypyrazolo[1,5-a]pyridine-3-carbonitrile] |  | 0.04 | 0.00896 | 0.174 | 1.91
